From ChEMBL document CHEMBL1201862, “PubChem BioAssay data set” (2004) come the findings set out here.

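Each compound was tested at five concentrations against cells in 96-well plates for 48 hours. GI50 marks 50% less growth.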 Activity calls are given as the source filed them. Cut-off read from the data, not from the text of the source: active = GI50 up to about 1.1 µM and inactive = higher.

Test systems include 786-0; A498; HCT-15; HL-60; HOP-62; K562; KM12; LOX IMVI; M14; MCF7; MDA-MB-435; MOLT-4; NCI-H23; NCI-H460; OVCAR-5; OVCAR-8; RXF 393; SK-OV-3; SNB-75; NCI-H522.
Holding throughout (test): DTP human tumour cell line panel, 48 h

With `CCCc1c(Cl)nc(Cl)nc1Cl`, the GI50 in the assay with 786-0 is 0.247 µM (active); with A498, 19.5 µM (inactive); in the assay with HCT-15, 0.327 µM; in the assay on HL-60, 0.48 µM (active); in the assay with HOP-62 it was 2.43 µM (inactive); in the assay on K562 it was 0.0723 µM (active). Besides, the GI50 in the assay with KM12 was 3.61 µM (inactive); with LOX IMVI, < 0.01 µM (active); in the assay on M14, 0.192 µM (active); in the assay on MCF7 it was 1.73 µM (inactive); in the assay with MDA-MB-435 it was 0.471 µM (active); with MOLT-4, 0.0429 µM (active). In addition, the GI50 in the assay on NCI-H23 was 0.428 µM (active); with NCI-H460, 1.2 µM (inactive); in the assay on OVCAR-5 it was 1.54 µM (inactive); in the assay on OVCAR-8 it was 1.05 µM (active); in the assay with RXF 393 it was 1.09 µM (active); with SK-OV-3 it was > 100 µM (inactive). Moreover, the GI50 in the assay on SNB-75 was 9.18 µM (inactive).
On to `CC(Cn1c(=O)oc2ccccc21)N(C)C` (stereo not given), for which the GI50 was > 100 µM (inactive) with 786-0; > 100 µM (inactive) in the assay with A498; greater than 100 µM in the assay with HCT-15; > 100 µM (inactive) in the assay on HL-60; > 100 µM (inactive) in the assay on HOP-62; > 100 µM (inactive) with K562. The GI50 with KM12, in the assay with LOX IMVI, with M14, with MCF7, in the assay on MDA-MB-435 and in the assay on MOLT-4 was > 100 µM (inactive) throughout. The GI50 in the assay on NCI-H23, in the assay with NCI-H460, in the assay on OVCAR-5, in the assay on OVCAR-8, in the assay on RXF 393 and in the assay with SK-OV-3 was > 100 µM (inactive) each time. The GI50 with SNB-75 is > 100 µM (inactive).
Turning to `CC(C)CCCC(C)[C@H]1CCC2[C@@H]3CCC4Cc5nc6c(nc5C[C@]4(C)C3CC[C@@]21C)CC1CC[C@@H]2C(CC[C@@]3(C)C2CC[C@@H]3O)[C@@]1(C)C6` (stereo not given in full), the GI50 with 786-0 was 87.1 µM (inactive); in the assay with A498, > 100 µM (inactive); with HCT-15, greater than 100 µM; with HL-60 it was > 100 µM (inactive); in the assay on HOP-62, > 100 µM (inactive); in the assay with K562, > 100 µM (inactive). The GI50 with KM12, with LOX IMVI, with M14, in the assay with MCF7, in the assay with MDA-MB-435 and in the assay on MOLT-4 was > 100 µM (inactive) in each case. Also, the GI50 in the assay on NCI-H23, in the assay on NCI-H460, in the assay with OVCAR-5, with OVCAR-8, in the assay on RXF 393 and with SK-OV-3 was > 100 µM (inactive) throughout. In the assay with SNB-75, the GI50 was 62.2 µM (inactive).
Turning to `CN(C)CCCNc1ccc([N+](=O)[O-])c2nc3ccccc3c(N)c12`, the GI50 in the assay with 786-0 is 0.385 µM (active); with A498 it was 2.22 µM (inactive); with HCT-15, 0.423 µM; in the assay on HL-60, 0.459 µM (active); with HOP-62, 2.36 µM (inactive); with K562, 0.312 µM (active). Moreover, the GI50 with KM12 was 0.436 µM (active); in the assay on LOX IMVI, 0.36 µM (active); in the assay on M14 it was 0.7 µM (active); with MCF7 it was 0.459 µM (active); with MDA-MB-435, 0.718 µM (active); in the assay on MOLT-4, 0.278 µM (active). In addition, the GI50 in the assay with NCI-H23 was 0.9 µM (active); in the assay with NCI-H460, 0.352 µM (active); in the assay with OVCAR-5, 2.49 µM (inactive); with OVCAR-8, 0.483 µM (active); with RXF 393 it was 0.736 µM (active); in the assay on SK-OV-3, 0.228 µM (active).
On to `Cc1nc2c(=O)[nH]ncc2[nH]1`, for which the GI50 is > 100 µM (inactive) in the assay with 786-0; > 100 µM (inactive) in the assay on A498; greater than 100 µM in the assay with HCT-15; 64 µM (inactive) in the assay with HL-60; > 100 µM (inactive) in the assay on HOP-62; > 100 µM (inactive) in the assay with K562. Besides, the GI50 with KM12 was 84.1 µM (inactive); in the assay with M14 it was > 100 µM (inactive); in the assay on MCF7, > 100 µM (inactive); in the assay with MDA-MB-435, > 100 µM (inactive); in the assay with MOLT-4, > 100 µM (inactive); with NCI-H23 it was > 100 µM (inactive). Further, the GI50 with NCI-H460 was > 100 µM (inactive); in the assay with OVCAR-5, > 100 µM (inactive); in the assay with OVCAR-8, > 100 µM (inactive); in the assay with RXF 393 it was > 100 µM (inactive); with SNB-75, 0.968 µM (active).
On to `N#CC(NCCc1ccccc1)c1ccccc1` (stereo not given), for which the GI50 in the assay with 786-0 was > 100 µM (inactive); in the assay with HCT-15, greater than 100 µM; with HL-60 it was > 100 µM (inactive); in the assay on HOP-62, > 100 µM (inactive); in the assay on K562, > 10 µM (inactive); in the assay on KM12 it was > 100 µM (inactive). The GI50 in the assay on LOX IMVI, in the assay with M14, with MCF7, in the assay on MDA-MB-435, in the assay with MOLT-4 and with NCI-H23 was > 100 µM (inactive) each time. Further, the GI50 in the assay with NCI-H460, in the assay with NCI-H522, in the assay on OVCAR-5, in the assay with OVCAR-8, with RXF 393 and with SK-OV-3 was > 100 µM (inactive) throughout. Moreover, the GI50 in the assay with SNB-75 is > 100 µM (inactive).
For `CC(NS(C)(=O)=O)c1ccccc1` (stereo not given), the GI50 with 786-0 was > 100 µM (inactive); in the assay with HCT-15 it was greater than 100 µM; with HL-60, > 100 µM (inactive); in the assay on HOP-62, > 100 µM (inactive); in the assay with K562, > 100 µM (inactive); in the assay on KM12, > 100 µM (inactive). The GI50 in the assay with LOX IMVI, with M14, with MCF7, with MDA-MB-435, in the assay with MOLT-4 and in the assay with NCI-H23 was > 100 µM (inactive) in each case. The GI50 was > 100 µM (inactive) in the assay on NCI-H460; > 100 µM (inactive) with NCI-H522; > 100 µM (inactive) in the assay on OVCAR-5; > 100 µM (inactive) in the assay on OVCAR-8; > 100 µM (inactive) in the assay on RXF 393; > 10 µM (inactive) in the assay with SK-OV-3. Besides, in the assay with SNB-75, the GI50 is > 100 µM (inactive).
On to `COc1ccc2[nH]cc(CCNC(=O)[C@H](Cc3ccc(O)cc3)NC(=O)[C@@H](NCC(F)(F)F)C(C)C)c2c1`, for which the GI50 with 786-0 is > 100 µM (inactive); in the assay on HCT-15, greater than 100 µM; in the assay with HL-60, 41.3 µM (inactive); in the assay on HOP-62, > 100 µM (inactive); in the assay on K562, 71.6 µM (inactive); with KM12, > 100 µM (inactive). Besides, the GI50 with LOX IMVI was 25.2 µM (inactive); in the assay with M14 it was > 100 µM (inactive); with MCF7, 35.5 µM (inactive); in the assay on MDA-MB-435, 25.2 µM (inactive); in the assay with MOLT-4, 68.5 µM (inactive); with NCI-H23, > 100 µM (inactive). Moreover, the GI50 with NCI-H460 was 48 µM (inactive); with NCI-H522, 26.5 µM (inactive); in the assay with OVCAR-5 it was > 100 µM (inactive); with OVCAR-8, 76 µM (inactive); in the assay on RXF 393, > 100 µM (inactive); with SK-OV-3, > 100 µM (inactive).
For `CCC(C)NC(=S)N/N=C(\C)c1ccccn1` (stereo not given), the GI50 is 0.171 µM (active) in the assay on 786-0; 0.102 µM (active) in the assay on A498; less than 0.01 µM in the assay with HCT-15; < 0.01 µM (active) with HL-60; 0.0348 µM (active) with HOP-62; < 0.01 µM (active) in the assay with K562. The GI50 with KM12 is 0.156 µM (active); with LOX IMVI, < 0.0211 µM (active); with M14, 0.0372 µM (active); in the assay with MCF7, < 0.01 µM (active); in the assay with MDA-MB-435, 0.824 µM (active); with MOLT-4 it was < 0.01 µM (active). Further, the GI50 with NCI-H23 was < 0.021 µM (active); in the assay on NCI-H460, 0.15 µM (active); in the assay on OVCAR-5, 0.0991 µM (active); with OVCAR-8, 0.126 µM (active); in the assay on RXF 393, < 0.01 µM (active); with SK-OV-3 it was 0.188 µM (active). Also, the GI50 in the assay with SNB-75 is 0.452 µM (active).
Regarding `O=C(c1cccs1)c1nccc2c1cnc1ccccc12`, the GI50 in the assay with 786-0 was 68.5 µM (inactive); in the assay with A498, 63.8 µM (inactive); in the assay on HCT-15, greater than 100 µM; in the assay on HL-60, > 100 µM (inactive); with HOP-62, 28.7 µM (inactive); in the assay with K562, > 100 µM (inactive). Moreover, the GI50 is > 100 µM (inactive) with KM12; > 100 µM (inactive) with LOX IMVI; > 100 µM (inactive) in the assay with M14; 20.3 µM (inactive) with MCF7; > 100 µM (inactive) in the assay on MDA-MB-435; > 100 µM (inactive) in the assay on MOLT-4. For the same compound, the GI50 with NCI-H23 is 92.7 µM (inactive); in the assay on NCI-H460 it was > 100 µM (inactive); in the assay on OVCAR-5, > 100 µM (inactive); in the assay on OVCAR-8 it was 31.4 µM (inactive); in the assay on RXF 393, 0.0113 µM (active); in the assay with SK-OV-3, > 100 µM (inactive). In addition, in the assay on SNB-75, the GI50 was 43.7 µM (inactive).
For `CC(=O)O[C@H]1C(=O)[C@]2(C)[C@@H](OC(=O)OCC(O)CO)C[C@H]3OC[C@@]3(OC(C)=O)[C@H]2[C@H](OC(=O)c2ccccc2)[C@]2(O)C[C@H](OC(=O)[C@H](O)[C@@H](NC(=O)c3ccccc3)c3ccccc3)C(C)=C1C2(C)C` (stereo not given in full) [PACLITAXEL CERIBATE], the GI50 was < 0.01 µM (active) with 786-0; 0.143 µM in the assay on HCT-15; < 0.01 µM (active) with HL-60; < 0.01 µM (active) in the assay with HOP-62; < 0.01 µM (active) in the assay with K562; < 0.01 µM (active) with KM12. Besides, the concentration for 50% growth inhibition (GI50) in the assay with LOX IMVI, in the assay with M14, in the assay with MCF7, in the assay with MDA-MB-435, with MOLT-4 and with NCI-H23 was < 0.01 µM (active) throughout. The 50% growth inhibitory concentration (GI50) in the assay on NCI-H460, in the assay on NCI-H522, in the assay on OVCAR-5, in the assay on OVCAR-8, in the assay on RXF 393 and in the assay with SK-OV-3 was < 0.01 µM (active) throughout. Moreover, the 50% growth inhibitory concentration (GI50) in the assay on SNB-75 is < 0.01 µM (active).
